T1: Solute carrier family 22 member 3 (Rattus norvegicus, UniProt O88446)
T1 sequence (O88446 whole entry): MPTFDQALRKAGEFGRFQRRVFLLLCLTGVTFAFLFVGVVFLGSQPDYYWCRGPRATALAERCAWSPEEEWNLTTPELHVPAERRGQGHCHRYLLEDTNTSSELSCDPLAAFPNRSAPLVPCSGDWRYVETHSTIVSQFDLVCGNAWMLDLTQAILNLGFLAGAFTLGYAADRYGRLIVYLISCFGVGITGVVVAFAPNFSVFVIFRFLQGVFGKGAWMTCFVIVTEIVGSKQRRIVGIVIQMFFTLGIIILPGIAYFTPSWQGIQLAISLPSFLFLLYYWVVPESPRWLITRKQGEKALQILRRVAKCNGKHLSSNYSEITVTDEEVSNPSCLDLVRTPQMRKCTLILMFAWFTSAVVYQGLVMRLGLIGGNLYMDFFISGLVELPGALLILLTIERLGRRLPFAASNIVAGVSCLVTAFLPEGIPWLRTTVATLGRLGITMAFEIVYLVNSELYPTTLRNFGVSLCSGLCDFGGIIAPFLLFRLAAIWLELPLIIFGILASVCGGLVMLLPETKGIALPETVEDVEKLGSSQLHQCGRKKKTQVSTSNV

T2: Solute carrier family 22 member 1 (Rattus norvegicus, UniProt Q63089)
T2 sequence (Q63089 whole entry): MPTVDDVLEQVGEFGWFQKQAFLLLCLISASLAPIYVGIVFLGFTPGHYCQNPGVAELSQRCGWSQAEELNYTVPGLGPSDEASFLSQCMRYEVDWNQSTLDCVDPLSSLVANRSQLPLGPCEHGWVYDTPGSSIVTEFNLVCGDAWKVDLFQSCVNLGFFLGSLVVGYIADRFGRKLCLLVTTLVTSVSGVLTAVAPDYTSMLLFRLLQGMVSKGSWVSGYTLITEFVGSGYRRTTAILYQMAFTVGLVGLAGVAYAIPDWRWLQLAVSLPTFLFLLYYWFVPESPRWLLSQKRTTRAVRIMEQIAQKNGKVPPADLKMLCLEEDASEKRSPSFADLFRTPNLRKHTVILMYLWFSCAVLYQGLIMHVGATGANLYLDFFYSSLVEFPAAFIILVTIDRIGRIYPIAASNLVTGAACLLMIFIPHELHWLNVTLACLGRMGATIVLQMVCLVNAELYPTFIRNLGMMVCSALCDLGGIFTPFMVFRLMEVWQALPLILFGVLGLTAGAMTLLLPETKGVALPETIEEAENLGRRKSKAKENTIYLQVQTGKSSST

T3: Solute carrier family 22 member 2 (Rattus norvegicus, UniProt Q9R0W2)
T3 sequence (Q9R0W2 whole entry): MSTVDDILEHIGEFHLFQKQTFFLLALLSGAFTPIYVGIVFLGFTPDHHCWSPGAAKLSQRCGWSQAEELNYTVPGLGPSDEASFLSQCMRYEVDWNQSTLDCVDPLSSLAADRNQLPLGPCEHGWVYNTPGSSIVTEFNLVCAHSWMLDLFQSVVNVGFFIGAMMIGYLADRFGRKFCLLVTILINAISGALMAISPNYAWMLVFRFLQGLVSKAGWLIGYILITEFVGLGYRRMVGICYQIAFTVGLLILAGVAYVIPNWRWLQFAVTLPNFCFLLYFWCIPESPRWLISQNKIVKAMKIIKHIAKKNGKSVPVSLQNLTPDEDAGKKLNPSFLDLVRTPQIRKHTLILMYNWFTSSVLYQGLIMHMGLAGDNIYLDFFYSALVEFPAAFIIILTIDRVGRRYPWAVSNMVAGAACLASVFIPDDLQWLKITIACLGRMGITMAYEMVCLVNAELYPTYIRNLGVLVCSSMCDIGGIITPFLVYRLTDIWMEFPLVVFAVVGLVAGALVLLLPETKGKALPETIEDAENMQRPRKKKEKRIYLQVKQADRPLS


Columns and labels:
[1] = biological target: T1, Solute carrier family 22 member 3; assay: TP_TRANSPORTER: inhibition of MPP+ uptake (MPP+: 1 uM) in OCT3-expressing HRPE cells; type: functional, cell-based
[2] = biological target: T2, Solute carrier family 22 member 1; assay: TP_TRANSPORTER: inhibition of TEA uptake (TEA: 20 uM, Corticosterone: 100 uM) in OCT1-expressing HRPE cells; type: functional, cell-based; settings: human
[3] = biological target: T3, Solute carrier family 22 member 2; assay: TP_TRANSPORTER: inhibition of TEA uptake (TEA: 20 uM) in OCT2-expressing HRPE cells; type: functional, cell-based
[4] = biological target: T1, Solute carrier family 22 member 3; assay: TP_TRANSPORTER: inhibition of TEA uptake (TEA: 20 uM) in OCT3-expressing HRPE cells; type: functional, cell-based
[5] = biological target: T1, Solute carrier family 22 member 3; assay: TP_TRANSPORTER: inhibition of Dopamine uptake (Dopamine: 0.15 uM, Cocaine: 100 uM) in OCT3-expressing HRPE cells; type: functional, cell-based; settings: human
[6] = biological target: T2, Solute carrier family 22 member 1; assay: TP_TRANSPORTER: inhibition of TEA uptake (TEA: 20 uM, Deoxycorticosterone: 100 uM) in OCT1-expressing HRPE cells; type: functional, cell-based; settings: human
[7] = biological target: T1, Solute carrier family 22 member 3; assay: (§1) TP_TRANSPORTER: uptake in OCT3-expressing HRPE cells; type: functional, cell-based; settings: human
[8] = biological target: T2, Solute carrier family 22 member 1; assay: TP_TRANSPORTER: inhibition of TEA uptake (TEA: 20 uM, beta-Estradiol: 100 uM) in OCT1-expressing HRPE cells; type: functional, cell-based; settings: human
[9] = biological target: T2, Solute carrier family 22 member 1; assay: TP_TRANSPORTER: inhibition of TEA uptake in OCT1-expressing HRPE cells; type: functional, cell-based; settings: human
[10] = biological target: T2, Solute carrier family 22 member 1; assay: TP_TRANSPORTER: inhibition of TEA uptake (TEA: 20 uM, Testosterone: 100 uM) in OCT1-expressing HRPE cells; type: functional, cell-based; settings: human
[11] = substrate: C[n+]1ccc(-c2ccccc2)cc1; assay: TP_TRANSPORTER: uptake (electrogenesis, -50mV) in Xenopus laevis oocytes; type: functional, cell-based, Oocyte
[12] = substrate: C[n+]1ccc(-c2ccccc2)cc1; assay: as §1; type: functional, cell-based

Molecule | IC50 [1] | IC50 [3] | IC50 [4] | other results
CC(N)Cc1ccccc1 (stereo unspecified) [AMPHETAMINE] | 42 µM |  |  | 
C[C@]12C[C@H](O)[C@H]3[C@@H](CCC4=CC(=O)CC[C@@]43C)[C@@H]1CC[C@@H]2C(=O)CO [CORTICOSTERONE] |  | 4.2 µM | 4.9 µM | Activity [2]: is not an inhibitor [-]; Activity [5]: inhibitor [(at a rough estimate) 5 % of control]
CNCCCN1c2ccccc2CCc2ccccc21 [DESIPRAMINE] | 68 µM |  |  | 
C[C@]12CC[C@H]3[C@@H](CCC4=CC(=O)CC[C@@]43C)[C@@H]1CC[C@@H]2C(=O)CO [DESOXYCORTICOSTERONE] |  | 1.9 µM | 8.4 µM | Activity [6]: is not an inhibitor [-]
NCCc1ccc(O)c(O)c1 [DOPAMINE] | 62 µM | 2300 µM | 384 µM | Activity [7]: substrate [+]
C[C@]12CC[C@@H]3c4ccc(O)cc4CC[C@H]3[C@@H]1CC[C@@H]2O [ESTRADIOL] |  | 84.8 µM | 1.1 µM | Activity [8]: is not an inhibitor [-]
CN[C@@H](C)Cc1ccccc1 [METHAMPHETAMINE] | 248 µM |  |  | 
NC[C@H](O)c1ccc(O)c(O)c1 [NOREPINEPHRINE] |  | 11000 µM | 434 µM | 
CC(=O)[C@H]1CC[C@H]2[C@@H]3CCC4=CC(=O)CC[C@]4(C)[C@H]3CC[C@]12C [PROGESTERONE] |  | 1.6 µM | 10.5 µM | Activity [9]: inhibitor [+]
NCCc1c[nH]c2ccc(O)cc12 [SEROTONIN] | 97 µM |  |  | 
C[C@]12CC[C@H]3[C@@H](CCC4=CC(=O)CC[C@@]43C)[C@@H]1CC[C@@H]2O [TESTOSTERONE] |  |  |  | Activity [10]: is not an inhibitor [-]
Solute carrier family 22 member 3 (Rattus norvegicus) (protein) MPTFDQALRKAGEFGRFQRRVFLLLCLTGVTFAFLFVGVVFLGSQPDYYWCRGPRATALAERCAWSPEEEWNLTTPELHVPAERRGQGHCHRYLLEDTNTSSELSCDPLAAFPNRSAPLVPCSGDWRYVETHSTIVSQFDLVCGNAWMLDLTQAILNLGFLAGAFTLGYAADRYGRLIVYLISCFGVGITGVVVAFAPNFSVFVIFRFLQGVFGKGAWMTCFVIVTEIVGSKQRRIVGIVIQMFFTLGIIILPGIAYFTPSWQGIQLAISLPSFLFLLYYWVVPESPRWLITRKQGEKALQILRRVAKCNGKHLSSNYSEITVTDEEVSNPSCLDLVRTPQMRKCTLILMFAWFTSAVVYQGLVMRLGLIGGNLYMDFFISGLVELPGALLILLTIERLGRRLPFAASNIVAGVSCLVTAFLPEGIPWLRTTVATLGRLGITMAFEIVYLVNSELYPTTLRNFGVSLCSGLCDFGGIIAPFLLFRLAAIWLELPLIIFGILASVCGGLVMLLPETKGIALPETVEDVEKLGSSQLHQCGRKKKTQVSTSNV |  |  |  | Km [11]: 24 µM; Km [12]: 91 µM

Reference: ChEMBL document CHEMBL2074049, “Identity of the organic cation transporter OCT3 as the extraneuronal monoamine transporter (uptake2) and evidence for the expression of the transporter in the brain” (J Biol Chem, 1998)
